Test results from ChEMBL document CHEMBL5352446, “Synthesis and biological evaluation of a novel c-Myc inhibitor against colorectal cancer via blocking c-Myc/Max heterodimerization and disturbing its DNA binding” (Eur J Med Chem, 2022).
Active and inactive are the calls of the source. The calls are words filed in the database; no cut-off is given here.

Tests used:
HT-29 [1] = test: Induction of apoptosis in human HT-29 cells assessed as early apoptotic cells at 10 uM incubated for 24 hrs by FITC Annexin-V and PI staining based flow cytometry analysis (reference value: 2.15%); type: functional
HT-29 [2] = test: Potency index, ratio of 5-Fu IC50 to test compound IC50 for antiproliferative activity against human HT-29 cells; type: functional
HT-29 [3] = test: cells; details: Homo sapiens, HT-29, 72 h
Description: Antiproliferative activity against human HT-29 cells incubated for 72 hrs by MTT assay

HT-29 [4] = test: Induction of apoptosis in human HT-29 cells assessed as early apoptotic cells at 2.5 uM incubated for 24 hrs by FITC Annexin-V and PI staining based flow cytometry analysis (reference value: 2.15%); type: functional
HT-29 [5] = test: Induction of cell cycle arrest in human HT-29 cells assessed as accumulation of cells at G2 phase at 5 uM incubated for 24 hrs by propidium iodide staining based flow cytometry analysis (reference value: 16.33 %); type: functional
[6] = Toxicity in BALB/c mouse xenografted with human HT-29 cells assessed as liver damage at 40 to 80 mg/kg, ip measured after 21 days by H and E staining based assay; type: organism-based; details: in vivo, 504 h, dose 40-80 mg/kg, time 21 day
HT-29 [7] = test: Induction of apoptosis in human HT-29 cells assessed as viable cells at 2.5 uM incubated for 24 hrs by FITC Annexin-V and PI staining based flow cytometry analysis (reference value: 96.94%); type: functional; details: read-out: Activity
HCT-116 [8] = test: Downregulation of c-Myc expression in human HCT-116 cells at 10 uM incubated for 24 hrs by Western blot analysis; type: functional, cell-based
HT-29 [9] = test: Inhibition of cell migration in human HT-29 cells incubated for 48 hrs by wound healing analysis; type: functional, cell-based
HT-29 [10] = test: Induction of apoptosis in human HT-29 cells assessed as early apoptotic cells at 0.625 uM incubated for 24 hrs by FITC Annexin-V and PI staining based flow cytometry analysis (reference value: 2.15%); type: functional
[11] = Toxicity in BALB/c mouse xenografted with human HT-29 cells assessed as lung damage at 40 to 80 mg/kg, ip measured after 21 days by H and E staining based assay; type: organism-based; details: in vivo, 504 h, dose 40-80 mg/kg, time 21 day
HCT-116 [12] = test: Inhibition of cell migration in human HCT-116 cells incubated for 48 hrs by wound healing analysis; type: functional, cell-based
HT-29 [13] = test: Induction of cell cycle arrest in human HT-29 cells assessed as accumulation of cells at S phase at 2.5 uM incubated for 24 hrs by propidium iodide staining based flow cytometry analysis (reference value: 12.01 %); type: functional
HT-29 [14] = test: Induction of cell cycle arrest in human HT-29 cells assessed as accumulation of cells at G2 phase at 1.25 uM incubated for 24 hrs by propidium iodide staining based flow cytometry analysis (reference value: 16.33 %); type: functional
[15] = Toxicity in BALB/c mouse xenografted with human HT-29 cells assessed as spleen damage at 40 to 80 mg/kg, ip measured after 21 days by H and E staining based assay; type: organism-based; details: in vivo, 504 h, dose 40-80 mg/kg, time 21 day
HT-29 [16] = test: Induction of apoptosis in human HT-29 cells assessed as necrotic cells at 2.5 uM incubated for 24 hrs by FITC Annexin-V and PI staining based flow cytometry analysis (reference value: 0.13%); type: functional
HCT-8 = test: Antiproliferative activity against human HCT-8 cells incubated for 72 hrs by MTT assay; type: functional, cell-based; details: HCT-8, 72 h
L02 = test: Cytotoxicity against human L02 cells incubated for 72 hrs by MTT assay; type: toxicity, cell-based; details: l02, 72 h
HT-29 [17] = test: Antitumor activity against human HT-29 cells xenografted in BALB/c mouse assessed as tumor growth inhibition at 80 mg/kg, ip administered daily for 3 weeks by caliper method; type: functional; details: HT-29, 504 h, read-out: TGI
HT-29 [18] = test: Induction of apoptosis in human HT-29 cells assessed as viable cells at 1.25 uM incubated for 24 hrs by FITC Annexin-V and PI staining based flow cytometry analysis (reference value: 96.94%); type: functional; details: read-out: Activity
HT-29 [19] = test: Induction of cell cycle arrest in human HT-29 cells assessed as accumulation of cells at G1 phase at 1.25 uM incubated for 24 hrs by propidium iodide staining based flow cytometry analysis (reference value: 65.37 %); type: functional
HT-29 [20] = test: Induction of apoptosis in human HT-29 cells assessed as upregulation of cleaved PARP expression incubated for 24 hrs by Western blot analysis; type: functional, cell-based; details: dose 2.5-10 µM
HT-29 [21] = test: Induction of apoptosis in human HT-29 cells assessed as upregulation of Bax expression incubated for 24 hrs by Western blot analysis; type: functional, cell-based; details: dose 2.5-10 µM
HT-29 [22] = test: Induction of apoptosis in human HT-29 cells assessed as downregulation of Bcl-2 expression incubated for 24 hrs by Western blot analysis; type: functional, cell-based; details: dose 2.5-10 µM
HT-29 [23] = test: Induction of cell cycle arrest in human HT-29 cells assessed as accumulation of cells at S phase at 1.25 uM incubated for 24 hrs by propidium iodide staining based flow cytometry analysis (reference value: 12.01 %); type: functional
HT-29 [24] = test: Downregulation of c-Myc expression in human […] cells incubated for 24 hrs by Western blot analysis; type: functional, cell-based; details: dose 2.5-10 µM
HT-29 [25] = test: Induction of apoptosis in human HT-29 cells assessed as necrotic cells at 5 uM incubated for 24 hrs by FITC Annexin-V and PI staining based flow cytometry analysis (reference value: 0.13%); type: functional
[26] = Toxicity in BALB/c mouse xenografted with human HT-29 cells assessed as heart damage at 40 to 80 mg/kg, ip measured after 21 days by H and E staining based assay; type: organism-based; details: in vivo, 504 h, dose 40-80 mg/kg, time 21 day
HT-29 [27] = test: Induction of cell cycle arrest in human HT-29 cells assessed as accumulation of cells at G1 phase at 0.625 uM incubated for 24 hrs by propidium iodide staining based flow cytometry analysis (reference value: 65.37 %); type: functional
HT-29 [28] = test: Induction of apoptosis in human HT-29 cells assessed as necrotic cells at 10 uM incubated for 24 hrs by FITC Annexin-V and PI staining based flow cytometry analysis (reference value: 0.13%); type: functional
HT-29 [29] = test: Induction of apoptosis in human HT-29 cells assessed as necrotic cells at 1.25 uM incubated for 24 hrs by FITC Annexin-V and PI staining based flow cytometry analysis (reference value: 0.13%); type: functional
HT-29 [30] = test: Induction of cell cycle arrest in human HT-29 cells assessed as accumulation of cells at S phase at 0.625 uM incubated for 24 hrs by propidium iodide staining based flow cytometry analysis (reference value: 12.01 %); type: functional
HT-29 [31] = test: Inhibition of colony formation in human HT-29 cells measured after 14 days by crystal violet staining based assay; type: functional, cell-based; details: dose 0.25-2 µM, time 14.0 day
HT-29 [32] = test: Induction of apoptosis in human HT-29 cells assessed as upregulation of cleaved caspase 9 expression incubated for 24 hrs by Western blot analysis; type: functional, cell-based; details: dose 2.5-10 µM
HT-29 [33] = test: Induction of apoptosis in human HT-29 cells assessed as early apoptotic cells at 1.25 uM incubated for 24 hrs by FITC Annexin-V and PI staining based flow cytometry analysis (reference value: 2.15%); type: functional
HT-29 [34] = test: Induction of cell cycle arrest in human HT-29 cells assessed as accumulation of cells at S phase at 5 uM incubated for 24 hrs by propidium iodide staining based flow cytometry analysis (reference value: 12.01 %); type: functional

Question: For COc1cc(Oc2ccc(Nc3ccc(CCCO)cc3)cc2)cc(OC)c1CNCCc1ccc(C(F)(F)F)cc1, which Activity (HT-29 [1]) is on record?
Answer: 29.06%

Question: And the “Ratio IC50” value (HT-29 [2])?
Answer: 32

Question: And the IC50 (HT-29 [3])?
Answer: 290 nM

Question: And the Activity (HT-29 [4])?
Answer: 19.39%

Question: And the Activity (HT-29 [5])?
Answer: 8.51%

Question: What about the Activity [6] of the same molecule?
Answer: Non-Toxic

Question: And the viability at 2.5 µM (HT-29 [7])?
Answer: 69.6%

Question: What about the Activity (HCT-116 [8]) of the same molecule?
Answer: Active

Question: And the inhibition (HT-29 [9])?
Answer: Active

Question: And the Activity (HT-29 [10])?
Answer: 5.9%

Question: What about the Activity [11] of the same molecule?
Answer: Non-Toxic

Question: And the inhibition (HCT-116 [12])?
Answer: Active

Question: What about the Activity (HT-29 [13]) of the same molecule?
Answer: 14.32%

Question: What about the Activity (HT-29 [14]) of the same molecule?
Answer: 11.24%

Question: What about the Activity [15] of the same molecule?
Answer: Non-Toxic

Question: What about the Activity (HT-29 [16]) of the same molecule?
Answer: 3.95%

Question: And the IC50 (HCT-8)?
Answer: 3120 nM

Question: And the Activity (L02)?
Answer: Non-Toxic

Question: And the inhibition in vivo at 80 mg/kg (HT-29 [17])?
Answer: 78.4%

Question: And the viability at 1.25 µM (HT-29 [18])?
Answer: 81%

Question: And the Activity (HT-29 [19])?
Answer: 74.95%

Question: What about the Activity (HT-29 [20]) of the same molecule?
Answer: Dose-Dependent Effect

Question: What about the Activity (HT-29 [21]) of the same molecule?
Answer: Dose-Dependent Effect

Question: And the Activity (HT-29 [22])?
Answer: Dose-Dependent Effect

Question: What about the Activity (HT-29 [23]) of the same molecule?
Answer: 13.16%

Question: And the Activity (HT-29 [24])?
Answer: Dose-Dependent Effect

Question: What about the Activity (HT-29 [25]) of the same molecule?
Answer: 1.29%

Question: What about the Activity [26] of the same molecule?
Answer: Non-Toxic

Question: And the Activity (HT-29 [27])?
Answer: 71.78%

Question: And the Activity (HT-29 [28])?
Answer: 1.87%

Question: What about the Activity (HT-29 [29]) of the same molecule?
Answer: 1.72%

Question: And the Activity (HT-29 [30])?
Answer: 14.41%

Question: What about the inhibition (HT-29 [31]) of the same molecule?
Answer: Dose-Dependent Effect

Question: What about the Activity (HT-29 [32]) of the same molecule?
Answer: Dose-Dependent Effect

Question: What about the Activity (HT-29 [33]) of the same molecule?
Answer: 12.78%

Question: What about the Activity (HT-29 [34]) of the same molecule?
Answer: 12.16%
